Assay results from ChEMBL document CHEMBL1201861, “Genomics of Drug Sensitity in Cancer screening data, Wellcome Trust Sanger Institute”.
Where “and” joins values, the source holds several entries; their conditions need not be identical. Equal entries are not always repeated.

Columns and labels:
Assay in all cases: cells
[1] = test system: KLE; format: functional, cell-based, Homo sapiens;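 note: growth inhibition of human KLE cells, read out with a cell viability assay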
Description: SANGER: Inhibition of human KLE cell growth in a cell viability assay.

[2] = test system: SNB-75; format: functional, cell-based, Homo sapiens;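 note: cell viability assay measuring growth inhibition of human SNB-75 cells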
Description: SANGER: Inhibition of human SNB75 cell growth in a cell viability assay.

[3] = test system: MCF7; format: functional, cell-based, Homo sapiens;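 note: growth inhibition of human MCF7 cells, read out with a cell viability assay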
Description: SANGER: Inhibition of human MCF7 cell growth in a cell viability assay.

[4] = test system: DK-MG; format: functional, cell-based, Homo sapiens;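 note: growth inhibition of DK-MG cells, read out with a cell viability assay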
Description: SANGER: Inhibition of human DK-MG cell growth in a cell viability assay.

[5] = test system: IGROV-1; format: functional, cell-based, Homo sapiens;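 note: reduction of IGROV-1 cell growth, read out with a viability assay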
Description: SANGER: Inhibition of human IGROV-1 cell growth in a cell viability assay.

[6] = test system: IGR-1; format: functional, cell-based, Homo sapiens;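 note: growth inhibition of human IGR-1 cells, read out with a cell viability assay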
Description: SANGER: Inhibition of human IGR-1 cell growth in a cell viability assay.

[7] = test system: SNU-5; format: functional, cell-based; settings: Homo sapiens;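 note: cell viability readout used to measure growth inhibition in human NCI-SNU-5 cells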
Description: SANGER: Inhibition of human NCI-SNU-5 cell growth in a cell viability assay.

[8] = test system: KP-4; format: functional, cell-based, Homo sapiens; settings: read-out: IC50;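 note: human KP-4 cells, with growth inhibition read out through a cell viability assay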
Description: SANGER: Inhibition of human KP-4 cell growth in a cell viability assay.

[9] = test system: HCT-116; format: functional, cell-based, Homo sapiens
Description: SANGER: Inhibition of human HCT-116 cell growth in a cell viability assay.

[10] = test system: CAL-120; format: functional, cell-based, Homo sapiens;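 note: cell growth inhibition, read out as cell viability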
Description: SANGER: Inhibition of human CAL-120 cell growth in a cell viability assay.

[11] = test system: SCC-9; format: functional, cell-based, Homo sapiens;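 note: Read-out is a cell viability assay, with values giving inhibition of cell growth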
Description: SANGER: Inhibition of human SCC-9 cell growth in a cell viability assay.

[12] = test system: K562; format: functional, cell-based; settings: Homo sapiens
Description: SANGER: Inhibition of human K-562 cell growth in a cell viability assay.

[13] = test system: COLO-800; format: functional, cell-based, Homo sapiens;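 note: growth inhibition of COLO-800 cells, read out with a cell viability assay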
Description: SANGER: Inhibition of human COLO-800 cell growth in a cell viability assay.

[14] = test system: RPMI-8866; format: functional, cell-based; settings: Homo sapiens
Description: SANGER: Inhibition of human RPMI-8866 cell growth in a cell viability assay.

[15] = test system: GOTO; format: functional, cell-based, Homo sapiens;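 note: growth inhibition of GOTO cells, read out by a cell viability assay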
Description: SANGER: Inhibition of human GOTO cell growth in a cell viability assay.

[16] = test system: HCC1569; format: functional, cell-based, Homo sapiens;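 note: growth inhibition of human HCC1569 cells, read out with a cell viability assay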
Description: SANGER: Inhibition of human HCC1569 cell growth in a cell viability assay.

[17] = test system: NCI-H1648; format: functional, cell-based, Homo sapiens;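 note: cell viability assay measuring inhibition of NCI-H1648 cell growth, from the Sanger screening data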
Description: SANGER: Inhibition of human NCI-H1648 cell growth in a cell viability assay.

[18] = test system: U-266; format: functional, cell-based; settings: Homo sapiens
Description: SANGER: Inhibition of human U-266 cell growth in a cell viability assay.

[19] = test system: CAL-39; format: functional, cell-based, Homo sapiens;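 note: cell viability assay measuring growth inhibition of CAL-39 cells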
Description: SANGER: Inhibition of human CAL-39 cell growth in a cell viability assay.

[20] = test system: NCI-H596; format: functional, cell-based, Homo sapiens;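 note: growth inhibition of NCI-H596 cells, read out with a cell viability assay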
Description: SANGER: Inhibition of human NCI-H596 cell growth in a cell viability assay.

[21] = test system: RO82-W-1; format: functional, cell-based, Homo sapiens;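 note: growth inhibition of human RO82-W-1 cells, measured with a cell viability assay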
Description: SANGER: Inhibition of human RO82-W-1 cell growth in a cell viability assay.

[22] = test system: TK-10; format: functional, cell-based, Homo sapiens;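 note: growth inhibition of TK-10 cells, read out in a cell viability assay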
Description: SANGER: Inhibition of human TK10 cell growth in a cell viability assay.

[23] = test system: D-336MG; format: functional, cell-based, Homo sapiens
Description: SANGER: Inhibition of human D-336MG cell growth in a cell viability assay.

[24] = test system: COLO-678; format: functional, cell-based, Homo sapiens
Description: SANGER: Inhibition of human COLO-678 cell growth in a cell viability assay.

[25] = test system: MN-60; format: functional, cell-based; settings: Homo sapiens;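 note: growth inhibition of the MN-60 cell line, determined with a cell viability assay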
Description: SANGER: Inhibition of human MN-60 cell growth in a cell viability assay.

[26] = test system: AGS; format: functional, cell-based, Homo sapiens;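 note: growth inhibition of AGS cells, determined with a cell viability assay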
Description: SANGER: Inhibition of human AGS cell growth in a cell viability assay.

[27] = test system: NCI-H810; format: functional, cell-based, Homo sapiens;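 note: IC50 reflects inhibition of cancer cell line growth, read out with a cell viability assay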
Description: SANGER: Inhibition of human NCI-H810 cell growth in a cell viability assay.

[28] = test system: NCI-H520; format: functional, cell-based, Homo sapiens;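 note: growth inhibition of NCI-H520 cells, measured by a cell viability assay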
Description: SANGER: Inhibition of human NCI-H520 cell growth in a cell viability assay.

[29] = test system: KARPAS-45; format: functional, cell-based; settings: Homo sapiens;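 note: inhibition of cell line growth, read out through a viability assay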
Description: SANGER: Inhibition of human KARPAS-45 cell growth in a cell viability assay.

[30] = test system: NTERA-2-cl-D1; format: functional, cell-based, Homo sapiens;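 note: inhibition of cell growth, measured with a cell viability assay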
Description: SANGER: Inhibition of human NTERA-S-cl-D1 cell growth in a cell viability assay.

[31] = test system: CAS-1; format: functional, cell-based, Homo sapiens;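 note: growth inhibition of CAS-1 cells, measured with a cell viability assay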
Description: SANGER: Inhibition of human CAS-1 cell growth in a cell viability assay.

[32] = test system: SN12C; format: functional, cell-based, Homo sapiens;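 note: growth inhibition of human SN12C cells, measured by a cell viability assay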
Description: SANGER: Inhibition of human SN12C cell growth in a cell viability assay.

[33] = test system: OE33; format: functional, cell-based, Homo sapiens;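 note: growth inhibition of human OE33 cells, measured by a cell viability assay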
Description: SANGER: Inhibition of human OE33 cell growth in a cell viability assay.

[34] = test system: MS-1; format: functional, cell-based; settings: Homo sapiens;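 note: growth inhibition of MS-1 cells, read out by cell viability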
Description: SANGER: Inhibition of human MS-1 cell growth in a cell viability assay.

[35] = test system: ALL-PO; format: functional, cell-based; settings: Homo sapiens;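 note: growth inhibition of ALL-PO cells, read out by a cell viability assay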
Description: SANGER: Inhibition of human ALL-PO cell growth in a cell viability assay.

[36] = test system: NCI-H2228; format: functional, cell-based, Homo sapiens;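 note: growth inhibition of human NCI-H2228 cells, read out by a cell viability assay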
Description: SANGER: Inhibition of human NCI-H2228 cell growth in a cell viability assay.

[37] = test system: OVCAR-3; format: functional, cell-based, Homo sapiens;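 note: growth inhibition of human OVCAR-3 cells, determined by a cell viability assay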
Description: SANGER: Inhibition of human OVCAR-3 cell growth in a cell viability assay.

[38] = test system: MHH-PREB-1; format: functional, cell-based; settings: Homo sapiens;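 note: cell viability assay measuring inhibition of proliferation of human MHH-PREB-1 cells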
Description: SANGER: Inhibition of human MHH-PREB-1 cell growth in a cell viability assay.

[39] = test system: HAL-01; format: functional, cell-based; settings: Homo sapiens;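 note: growth inhibition of human HAL-01 cells, read out with a cell viability assay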
Description: SANGER: Inhibition of human HAL-01 cell growth in a cell viability assay.

[40] = test system: EFO-27; format: functional, cell-based, Homo sapiens;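 note: growth inhibition of EFO-27 cells, read out with a cell viability assay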
Description: SANGER: Inhibition of human EFO-27 cell growth in a cell viability assay.

[41] = test system: SK-NEP-1; format: functional, cell-based; settings: Homo sapiens;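 note: growth inhibition of human SK-NEP-1 cells, read out by a cell viability assay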
Description: SANGER: Inhibition of human SK-NEP-1 cell growth in a cell viability assay.

[42] = test system: NCI-H1770; format: functional, cell-based; settings: Homo sapiens;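 note: growth inhibition of NCI-H1770 cells determined with a viability readout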
Description: SANGER: Inhibition of human NCI-H1770 cell growth in a cell viability assay.

[43] = test system: NY; format: functional, cell-based, Homo sapiens
Description: SANGER: Inhibition of human NY cell growth in a cell viability assay.

[44] = test system: LU-134-A; format: functional, cell-based; settings: Homo sapiens
Description: SANGER: Inhibition of human LU-134-A cell growth in a cell viability assay.

[45] = test system: IST-SL1; format: functional, cell-based, Homo sapiens;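 note: growth inhibition of human IST-SL1 cells, read out with a cell viability assay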
Description: SANGER: Inhibition of human IST-SL1 cell growth in a cell viability assay.

[46] = test system: LOX IMVI; format: functional, cell-based; settings: Homo sapiens
Description: SANGER: Inhibition of human LOXIMVI cell growth in a cell viability assay.

[47] = test system: BEN; format: functional, cell-based, Homo sapiens;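 note: growth inhibition of the BEN cell line, read out with a cell viability assay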
Description: SANGER: Inhibition of human BEN cell growth in a cell viability assay.

[48] = test system: A704; format: functional, cell-based, Homo sapiens;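 note: growth inhibition of human A704 cells, read out with a cell viability assay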
Description: SANGER: Inhibition of human A704 cell growth in a cell viability assay.

[49] = test system: HGC-27; format: functional, cell-based, Homo sapiens;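 note: growth inhibition of human HGC-27 cells, read out in a cell viability assay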
Description: SANGER: Inhibition of human HGC-27 cell growth in a cell viability assay.

[50] = test system: LB771-HNC; format: functional, cell-based, Homo sapiens;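 note: growth inhibition of LB771-HNC human cells, read out with a cell viability assay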
Description: SANGER: Inhibition of human LB771-HNC cell growth in a cell viability assay.

[51] = test system: LoVo; format: functional, cell-based; settings: Homo sapiens;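 note: growth inhibition of human LoVo cells, read out with a cell viability assay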
Description: SANGER: Inhibition of human LoVo cell growth in a cell viability assay.

[52] = test system: VMRC-RCZ; format: functional, cell-based; settings: Homo sapiens;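 note: growth inhibition measured with a cell viability assay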
Description: SANGER: Inhibition of human VMRC-RCZ cell growth in a cell viability assay.

[53] = test system: UO-31; format: functional, cell-based; settings: Homo sapiens;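 note: cell viability assay measuring inhibition of cell growth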
Description: SANGER: Inhibition of human U031 cell growth in a cell viability assay.

## Cc1cc([C@@H](C)Nc2ccccc2C(=O)O)c2nc(N3CCOCC3)cc(=O)n2c1 [AZD-6482]
[1]; kle
  IC50: > 5120 nM
[2]; Homo sapiens, SNB-75
  IC50: 1670 nM
[2]; snb-75
  IC50: 3150 nM
[3]; mcf7
  IC50: > 5.12 µM and 3.35 µM
[4]; dk-mg
  IC50: > 5120 nM
[5]; Homo sapiens, IGROV-1
  IC50: 1970 nM
[5]; igrov-1
  IC50: 2550 nM
[6]; igr-1
  IC50: > 5120 nM
[7]
  IC50: > 5120 nM
[8]; kp-4
  IC50: > 5120 nM
[9]; hct-116
  IC50: > 5120 nM
[10]; cal-120
  IC50: > 5120 nM
[11]; Homo sapiens, SCC-9
  IC50: 858 nM
[11]; scc-9
  IC50: 904 nM
[12]
  IC50: > 5120 nM
[13]; colo-800
  IC50: > 5120 nM
[14]
  IC50: > 5120 nM
[15]; Homo sapiens, GOTO
  IC50: > 5.12 µM
[15]; goto
  IC50: > 5.12 µM
[16]; hcc1569
  IC50: 3.29 µM and > 5.12 µM
[17]; Homo sapiens, NCI-H1648
  IC50: > 5.12 µM
[17]; nci-h1648
  IC50: > 5.12 µM
[18]
  IC50: > 5120 nM
[19]; cal-39
  IC50: 2000 nM and > 5120 nM
[20]; nci-h596
  IC50: > 5120 nM
[21]; ro82-w-1
  IC50: > 5120 nM
[22]; tk-10
  IC50: > 5120 nM
[23]; d-336mg
  IC50: 1670 nM and 3430 nM
[24]; colo-678
  IC50: > 5120 nM
[25]
  IC50: > 5120 nM
[26]; Homo sapiens, AGS
  IC50: > 5.12 µM
[26]; ags
  IC50: > 5.12 µM
[27]; Homo sapiens, NCI-H810
  IC50: > 5.12 µM
[27]; nci-h810
  IC50: > 5.12 µM
[28]; Homo sapiens, NCI-H520
  IC50: 4.21 µM
[28]; nci-h520
  IC50: > 5.12 µM
[29]
  IC50: 3300 nM
[30]; Homo sapiens, NTERA-2-cl-D1
  IC50: 2190 nM
[30]; ntera-2-cl-d1
  IC50: 4380 nM
[31]; Homo sapiens, CAS-1
  IC50: > 5.12 µM
[31]; cas-1
  IC50: > 5.12 µM
[32]; sn12c
  IC50: > 5120 nM
[33]; oe33
  IC50: > 5120 nM
[34]
  IC50: > 5120 nM
[35]
  IC50: > 5120 nM
[36]; nci-h2228
  IC50: > 5120 nM
[37]; ovcar-3
  IC50: 679 nM and 3920 nM
[38]
  IC50: > 5120 nM
[39]
  IC50: 1300 nM
[40]; Homo sapiens, EFO-27
  IC50: > 5.12 µM
[40]; efo-27
  IC50: > 5.12 µM
[41]
  IC50: > 5120 nM
[42]
  IC50: > 5120 nM
[43]; Homo sapiens, NY
  IC50: > 5.12 µM
[43]; ny
  IC50: > 5.12 µM
[44]
  IC50: > 5120 nM
[45]; ist-sl1
  IC50: > 5120 nM
[46]
  IC50: > 5120 nM
[47]; ben
  IC50: > 5120 nM
[48]; a704
  IC50: > 5.12 µM and 3.31 µM
[49]; hgc-27
  IC50: 1180 nM and > 5120 nM
[50]; Homo sapiens, LB771-HNC
  IC50: > 5.12 µM
[50]; lb771-hnc
  IC50: > 5.12 µM

## CN(Cc1cnc2nc(N)nc(N)c2n1)c1ccc(C(=O)N[C@@H](CCC(=O)O)C(=O)O)cc1 [METHOTREXATE]
[1]; Homo sapiens, KLE
  IC50: > 200 nM
[2]; Homo sapiens, SNB-75
  IC50: > 200 nM
[3]; Homo sapiens, MCF7
  IC50: > 0.2 µM
[51]
  IC50: > 200 nM
[4]; Homo sapiens, DK-MG
  IC50: > 200 nM
[6]; Homo sapiens, IGR-1
  IC50: > 200 nM
[7]
  IC50: > 200 nM
[8]; Homo sapiens, KP-4
  IC50: > 200 nM
[9]; Homo sapiens, HCT-116
  IC50: > 200 nM
[10]; Homo sapiens, CAL-120
  IC50: > 200 nM
[11]; Homo sapiens, SCC-9
  IC50: > 200 nM
[12]
  IC50: > 200 nM
[13]; Homo sapiens, COLO-800
  IC50: 124 nM
[14]
  IC50: 20 nM
[15]; Homo sapiens, GOTO
  IC50: > 0.2 µM
[16]; Homo sapiens, HCC1569
  IC50: > 0.2 µM
[17]; Homo sapiens, NCI-H1648
  IC50: > 0.2 µM
[18]
  IC50: > 200 nM
[52]
  IC50: > 200 nM
[19]; Homo sapiens, CAL-39
  IC50: > 200 nM
[20]; Homo sapiens, NCI-H596
  IC50: > 200 nM
[21]; Homo sapiens, RO82-W-1
  IC50: > 200 nM
[22]; Homo sapiens, TK-10
  IC50: > 200 nM
[23]; Homo sapiens, D-336MG
  IC50: > 200 nM
[24]; Homo sapiens, COLO-678
  IC50: > 200 nM
[25]
  IC50: 65.7 nM
[27]; Homo sapiens, NCI-H810
  IC50: > 0.2 µM
[53]
  IC50: > 200 nM
[28]; Homo sapiens, NCI-H520
  IC50: > 0.2 µM
[29]
  IC50: 124 nM
[30]; Homo sapiens, NTERA-2-cl-D1
  IC50: > 200 nM
[31]; Homo sapiens, CAS-1
  IC50: > 0.2 µM
[32]; Homo sapiens, SN12C
  IC50: > 200 nM
[33]; Homo sapiens, OE33
  IC50: > 200 nM
[34]
  IC50: 45.3 nM
[35]
  IC50: 5.86 nM
[36]; Homo sapiens, NCI-H2228
  IC50: > 200 nM
[37]; Homo sapiens, OVCAR-3
  IC50: > 200 nM
[38]
  IC50: 13.2 nM
[39]
  IC50: 22.3 nM
[40]; Homo sapiens, EFO-27
  IC50: > 0.2 µM
[41]
  IC50: 4.82 nM
[42]
  IC50: 1.98 nM
[43]; Homo sapiens, NY
  IC50: > 0.2 µM
[44]
  IC50: 88.7 nM
[45]; Homo sapiens, IST-SL1
  IC50: > 200 nM
[46]
  IC50: > 200 nM
[47]; Homo sapiens, BEN
  IC50: > 200 nM
[48]; Homo sapiens, A704
  IC50: > 0.2 µM
[49]; Homo sapiens, HGC-27
  IC50: > 200 nM
[50]; Homo sapiens, LB771-HNC
  IC50: > 0.2 µM
